Measurements taken from the supplement of paper PMC10883282.
± gives the standard deviation of the averaged measurements.

Tested on: KHOS-NP
Experiment: relative viability vs DMSO control (72 h) (fraction); higher = more viable cells
Procedure, shortened: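 Relative viability was measured with ATPLite and expressed as percent growth, averaged across up to triplicate wells. Sarcoma cell lines had been seeded in 384-well plates to reach 80–90% confluence, dosed after 24 h, and incubated 72 h at 37 °C, 5% CO2. All data were rescaled on a scale where 1 is full and 0 is none.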

| Structure (SMILES) | relative viability (0.00017 µM) | relative viability (0.00051 µM) | relative viability (0.00152 µM) | relative viability (0.00457 µM) | relative viability (0.01372 µM) | relative viability (0.04115 µM) | relative viability (0.1235 µM) | relative viability (0.3704 µM) | relative viability (1.111 µM) | relative viability (3.333 µM) | relative viability (10 µM) | relative viability (2 pM) | relative viability (5 pM) | relative viability (15 pM) | relative viability (50 pM) | relative viability (0.00014 µM) | relative viability (0.00041 µM) | relative viability (0.0012 µM) | relative viability (0.0037 µM) | relative viability (0.011 µM) | relative viability (200 fM) | relative viability (600 fM) |
| --- | --- | --- | --- | --- | --- | --- | --- | --- | --- | --- | --- | --- | --- | --- | --- | --- | --- | --- | --- | --- | --- | --- |
| C[C@@H]1CCN(C(=O)CC#N)C[C@@H]1N(C)c1ncnc2[nH]ccc12 [Tofacitinib] | 1.08 ± 0.037 | 1.092 ± 0.01 | 1.08 ± 0.031 | 1.09 ± 0.036 | 1.05 ± 0.034 | 1.07 ± 0.053 | 1.06 ± 0.049 | 1.05 ± 0.029 | 1.03 ± 0.011 | 1.02 ± 0.051 | 0.941 ± 0.015 |  |  |  |  |  |  |  |  |  |  |  |
| CC[C@H](Nc1ncnc2[nH]cnc12)c1nc2cccc(F)c2c(=O)n1-c1ccccc1 [Idelalisib] | 1.117 ± 0.0096 | 1.12 ± 0.017 | 1.12 ± 0.022 | 1.105 ± 0.01 | 1.11 ± 0.041 | 1.11 ± 0.025 | 1.1 ± 0.046 | 1.1 ± 0.024 | 1.085 ± 0.0061 | 1.06 ± 0.043 | 1.04 ± 0.019 |  |  |  |  |  |  |  |  |  |  |  |
| COc1cc2nccc(Oc3ccc(NC(=O)Nc4cc(C)on4)c(Cl)c3)c2cc1OC [Tivozanib] | 1.08 ± 0.013 | 1.06 ± 0.016 | 1.06 ± 0.027 | 1.08 ± 0.021 | 1.074 ± 0.005 | 1.06 ± 0.034 | 1.09 ± 0.018 | 1.05 ± 0.031 | 1.06 ± 0.023 | 1.03 ± 0.027 | 0.719 ± 0.015 |  |  |  |  |  |  |  |  |  |  |  |
| COc1cc2c(cc1O)CCN[C@]21CS[C@@H]2c3c(OC(C)=O)c(C)c4c(c3[C@H](COC1=O)N1[C@@H]2[C@H]2c3c(cc(C)c(OC)c3O)C[C@@H]([C@@H]1O)N2C)OCO4 [Trabectedin] |  |  |  |  |  |  |  |  |  |  |  | 1.11 ± 0.026 | 1.11 ± 0.03 | 1.11 ± 0.028 | 1.09 ± 0.018 | 1.04 ± 0.029 | 0.0507 ± 0.011 | 0.0847 ± 0.0079 | 0.102 ± 0.0031 | 0.0529 ± 0.0034 | 1.1 ± 0.03 | 1.12 ± 0.022 |
| N#CC[C@H](C1CCCC1)n1cc(-c2ncnc3[nH]ccc23)cn1 [Ruxolitinib] | 1.04 ± 0.024 | 1.04 ± 0.028 | 1.05 ± 0.03 | 1.03 ± 0.036 | 1.02 ± 0.033 | 1.03 ± 0.038 | 1.015 ± 0.0094 | 0.995 ± 0.062 | 0.988 ± 0.044 | 0.9816 ± 0.0032 | 0.809 ± 0.031 |  |  |  |  |  |  |  |  |  |  |  |
| Cc1cc(C)c(/C=C2\C(=O)Nc3ccccc32)[nH]1 [Semaxanib] | 1.04 ± 0.035 | 1.04 ± 0.025 | 1.05 ± 0.028 | 1.05 ± 0.037 | 1.03 ± 0.041 | 1.05 ± 0.02 | 1.04 ± 0.03 | 1 ± 0.027 | 0.989 ± 0.027 | 1.002 ± 0.008 | 0.927 ± 0.025 |  |  |  |  |  |  |  |  |  |  |  |
| O=C(Cc1ccc(-c2ccc(OCCN3CCOCC3)cc2)cn1)NCc1ccccc1 [KX2-391] | 1.106 ± 0.0028 | 1.11 ± 0.033 | 1.11 ± 0.031 | 1.11 ± 0.036 | 1.09 ± 0.03 | 1.039 ± 0.01 | 0.586 ± 0.013 | 0.456 ± 0.026 | 0.378 ± 0.0089 | 0.376 ± 0.0087 | 0.364 ± 0.028 |  |  |  |  |  |  |  |  |  |  |  |
| COc1cc2c(Oc3ccc4[nH]c(C)cc4c3F)ncnc2cc1OCCCN1CCCC1 [Cediranib] | 1.08 ± 0.025 | 1.11 ± 0.02 | 1.09 ± 0.013 | 1.08 ± 0.015 | 1.09 ± 0.018 | 1.09 ± 0.014 | 1.04 ± 0.027 | 1.07 ± 0.029 | 1.036 ± 0.0041 | 1.05 ± 0.016 | 1.03 ± 0.023 |  |  |  |  |  |  |  |  |  |  |  |
| CO[C@H]1C[C@@H]2CC[C@@H](C)[C@@](O)(O2)C(=O)C(=O)N2CCCC[C@H]2C(=O)O[C@H]([C@H](C)C[C@@H]2CC[C@@H](OP(C)(C)=O)[C@H](OC)C2)CC(=O)[C@H](C)/C=C(\C)[C@@H](O)[C@@H](OC)C(=O)[C@H](C)C[C@H](C)/C=C/C=C/C=C/1C [Ridaforolimus] | 1.11 ± 0.033 | 1.1 ± 0.011 | 1.09 ± 0.015 | 1.1 ± 0.016 | 1.08 ± 0.03 | 1.08 ± 0.033 | 1.07 ± 0.033 | 1.06 ± 0.045 | 1.07 ± 0.026 | 1.02 ± 0.032 | 1.01 ± 0.02 |  |  |  |  |  |  |  |  |  |  |  |
| Cc1cnc(Nc2ccc(OCCN3CCCC3)cc2)nc1Nc1cccc(S(=O)(=O)NC(C)(C)C)c1 [Fedratinib] | 1.09 ± 0.023 | 1.08 ± 0.049 | 1.08 ± 0.05 | 1.09 ± 0.016 | 1.07 ± 0.022 | 1.06 ± 0.018 | 1.02 ± 0.029 | 1.01 ± 0.039 | 0.905 ± 0.046 | 0.511 ± 0.017 | 0.216 ± 0.0037 |  |  |  |  |  |  |  |  |  |  |  |
| Cn1cc(-c2cc3c(N4CCN(c5ncc([C@@](C)(N)c6ccc(F)cc6)cn5)CC4)ncnn3c2)cn1 [Avapritinib] | 1.021 ± 0.0094 | 1.05 ± 0.031 | 1.02 ± 0.027 | 1.04 ± 0.029 | 1.03 ± 0.017 | 1.03 ± 0.015 | 1 ± 0.022 | 0.948 ± 0.041 | 0.861 ± 0.024 | 0.685 ± 0.033 | 0.586 ± 0.048 |  |  |  |  |  |  |  |  |  |  |  |
| CN1CCN(c2ccc3nc(-c4c(N)c5c(F)cccc5[nH]c4=O)[nH]c3c2)CC1 [Dovitinib] | 1.08 ± 0.038 | 1.11 ± 0.018 | 1.107 ± 0.0074 | 1.104 ± 0.007 | 1.13 ± 0.025 | 1.11 ± 0.029 | 1.1 ± 0.033 | 1.04 ± 0.07 | 1.03 ± 0.035 | 0.677 ± 0.029 | 0.248 ± 0.032 |  |  |  |  |  |  |  |  |  |  |  |
